Series [1] can be described thus: Partition coefficient, log D of the compound at pH 7.4 by HPLC analysis. Type of series: physicochemical. The note with it: octanol/water.
The target in the next series is T1, CYP1A2 (Homo sapiens, UniProt P05177).
T1 sequence (P05177 whole entry): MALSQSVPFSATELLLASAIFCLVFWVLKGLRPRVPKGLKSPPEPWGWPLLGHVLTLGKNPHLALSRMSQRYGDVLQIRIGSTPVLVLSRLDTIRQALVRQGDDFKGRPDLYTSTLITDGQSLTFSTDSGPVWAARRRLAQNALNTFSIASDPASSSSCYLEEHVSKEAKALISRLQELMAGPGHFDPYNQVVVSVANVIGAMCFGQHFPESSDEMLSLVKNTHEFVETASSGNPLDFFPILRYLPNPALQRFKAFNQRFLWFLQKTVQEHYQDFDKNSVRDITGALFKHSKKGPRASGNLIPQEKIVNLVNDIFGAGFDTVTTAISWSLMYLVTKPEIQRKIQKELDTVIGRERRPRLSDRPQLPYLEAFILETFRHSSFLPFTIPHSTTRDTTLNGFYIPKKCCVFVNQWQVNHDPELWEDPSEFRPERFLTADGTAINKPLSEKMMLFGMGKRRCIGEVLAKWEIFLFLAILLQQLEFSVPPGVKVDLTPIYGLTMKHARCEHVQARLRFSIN
Nature of the series: Inhibition of CYP1A2 in human liver microsomes assessed as reduction in apparent rate of formation of metabolites using phenacetin as substrate at 20 uM by LC-MS analysis. It counts as ADME. Particulars: probe phenacetin. On the technique in general: Liver microsomes are vesicles of endoplasmic reticulum, rich in cytochrome P450 enzymes.

In series [2] the target is Tyrosine-protein kinase JAK2 (Homo sapiens) (UniProt O60674). Nature of the series: Inhibition of JAK2 (unknown origin) at 1 uM.
The target of series [3] is Rho-associated protein kinase 2 (Homo sapiens) (UniProt O75116). Nature of the series: Inhibition of ROCK2 (unknown origin) at 1 uM.
The nature of series [4]: In vitro intrinsic clearance in human liver microsomes at 1 uM by LC-MS analysis. It counts as ADME. The note with it: read-out: CLH.
The nature of series [5]: Solubility of the compound in phosphate buffer at pH 6.5 by nephelometry. It counts as physicochemical.
The target in the next series is LIM domain kinase 2 (Homo sapiens, UniProt P53671). As to the kind of experiment: Inhibition of LIMK2 (unknown origin).
The target in series [6] is Tyrosine-protein kinase Lck (Homo sapiens) (UniProt P06239). Nature of the series: Inhibition of Lck (unknown origin) at 1 uM.
The target of series [7] is T2, LIM domain kinase 1 (Homo sapiens, UniProt P53667). Nature of the series: Inhibition of LIMK1 (unknown origin) assessed as ADP formation using cofilin-2 protein as substrate measured after 60 mins incubation with enzyme by Transcreener assay.
The target of series [8] is Serine/threonine-protein kinase PAK 1 (Homo sapiens) (UniProt Q13153). As to the kind of experiment: Inhibition of PAK1 (unknown origin) at 1 uM.
Series [9] addresses T2, LIM domain kinase 1. Nature of the series: Inhibition of LIMK1-catalyzed cofilin phosphorylation in human ZR-75-1 cells. It counts as cell-based.
For series [10], the target named is Serine/threonine-protein kinase PAK 4 (Homo sapiens) (UniProt O96013). Nature of the series: Inhibition of PAK4 (unknown origin) at 1 uM.
Series [11] can be described thus: In vitro intrinsic clearance in mouse liver microsomes at 1 uM by LC-MS analysis. Type of series: ADME. Particulars: read-out: CLH.
For a further series, the target named is hERG (KCNH2) (Homo sapiens, UniProt Q12809). As to the kind of experiment: Inhibition of human ERG at 10 uM by fluorescence polarization assay. For orientation: In fluorescence polarisation assays a small probe gives low polarisation when free and higher when bound to something large.
The target of series [12] is T3, Tyrosine-protein kinase JAK3 (Homo sapiens) (UniProt P52333).
T3 sequence (whole entry): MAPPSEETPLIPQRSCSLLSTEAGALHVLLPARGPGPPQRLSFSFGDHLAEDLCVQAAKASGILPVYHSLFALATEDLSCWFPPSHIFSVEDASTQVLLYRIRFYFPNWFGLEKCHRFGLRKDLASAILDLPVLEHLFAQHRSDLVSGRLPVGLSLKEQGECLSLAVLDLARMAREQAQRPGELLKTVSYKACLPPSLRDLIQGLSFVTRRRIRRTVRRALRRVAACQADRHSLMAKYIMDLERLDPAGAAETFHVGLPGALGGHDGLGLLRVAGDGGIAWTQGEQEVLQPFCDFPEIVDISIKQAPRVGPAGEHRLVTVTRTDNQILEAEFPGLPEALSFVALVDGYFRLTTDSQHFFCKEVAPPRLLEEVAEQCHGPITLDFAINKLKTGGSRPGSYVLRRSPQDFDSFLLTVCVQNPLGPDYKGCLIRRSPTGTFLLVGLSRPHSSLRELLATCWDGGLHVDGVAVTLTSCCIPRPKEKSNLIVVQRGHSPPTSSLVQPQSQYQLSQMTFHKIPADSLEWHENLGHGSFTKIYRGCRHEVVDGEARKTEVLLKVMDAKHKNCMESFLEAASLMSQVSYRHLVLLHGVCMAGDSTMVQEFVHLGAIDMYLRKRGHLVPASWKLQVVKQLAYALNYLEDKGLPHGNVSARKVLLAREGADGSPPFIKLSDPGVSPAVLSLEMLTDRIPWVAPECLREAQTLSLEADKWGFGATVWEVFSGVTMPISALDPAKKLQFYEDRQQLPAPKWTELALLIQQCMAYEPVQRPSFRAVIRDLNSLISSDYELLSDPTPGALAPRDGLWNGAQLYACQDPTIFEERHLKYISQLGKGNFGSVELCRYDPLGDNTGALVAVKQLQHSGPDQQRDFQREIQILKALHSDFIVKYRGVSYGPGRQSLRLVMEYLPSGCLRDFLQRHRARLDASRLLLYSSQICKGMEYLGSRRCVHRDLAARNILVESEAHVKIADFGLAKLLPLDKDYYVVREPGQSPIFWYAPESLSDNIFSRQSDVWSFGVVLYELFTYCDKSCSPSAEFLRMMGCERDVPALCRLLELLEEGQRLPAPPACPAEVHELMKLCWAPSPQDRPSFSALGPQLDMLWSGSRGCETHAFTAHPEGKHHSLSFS
As to the kind of experiment: Inhibition of JAK3 (unknown origin) at 1 uM.

A short description of series [13]: Solubility of the compound in 0.01 M HCl at pH 2 by nephelometry. Type of series: physicochemical.
The test system of another series is CYP2D6 (Homo sapiens). Nature of the series: Inhibition of CYP2D6 in human liver microsomes assessed as reduction in apparent rate of formation of metabolites using dextromethorphan as substrate at 20 uM by LC-MS analysis. Particulars: probe dextromethorphan.
For series [14], the target named is Tyrosine-protein kinase JAK1 (Homo sapiens) (UniProt P23458). Nature of the series: Inhibition of JAK1 (unknown origin) at 1 uM.
For series [15], the target named is Proto-oncogene tyrosine-protein kinase Src (Homo sapiens) (UniProt P12931). Nature of the series: Inhibition of Src (unknown origin) at 1 uM.
The target of the next series is CYP3A4 (Homo sapiens, UniProt P08684). As to the kind of experiment: Inhibition of CYP3A4 in human liver microsomes assessed as reduction in apparent rate of formation of metabolites using midazolam or testosterone as substrate at 20 uM by LC-MS analysis. Particulars: probe midazolam or testosterone. It counts as ADME.
A short description of series [16]: Plasma protein binding in human by LC-MS analysis. Type of series: ADME, cell-free. Particulars: read-out: PPB (converted).

Broadly, the logD is lipophilicity at a set pH, counting ionised and neutral species. Higher therefore signals higher lipophilicity. In general, inhibition refers to the percentage by which the read-out fell short of the control. For orientation: solubility (kinetic) means the concentration staying in solution when a stock, usually in DMSO, is diluted into the medium. Usually IC50 stands for the concentration that inhibits the measured activity by half.

In brackets after ≈: the same amount, converted by molar mass. Where only a bound is given, the exact number is not on record here.

Tyrosine-protein kinase JAK1 (Homo sapiens), sequence (P23458 whole entry): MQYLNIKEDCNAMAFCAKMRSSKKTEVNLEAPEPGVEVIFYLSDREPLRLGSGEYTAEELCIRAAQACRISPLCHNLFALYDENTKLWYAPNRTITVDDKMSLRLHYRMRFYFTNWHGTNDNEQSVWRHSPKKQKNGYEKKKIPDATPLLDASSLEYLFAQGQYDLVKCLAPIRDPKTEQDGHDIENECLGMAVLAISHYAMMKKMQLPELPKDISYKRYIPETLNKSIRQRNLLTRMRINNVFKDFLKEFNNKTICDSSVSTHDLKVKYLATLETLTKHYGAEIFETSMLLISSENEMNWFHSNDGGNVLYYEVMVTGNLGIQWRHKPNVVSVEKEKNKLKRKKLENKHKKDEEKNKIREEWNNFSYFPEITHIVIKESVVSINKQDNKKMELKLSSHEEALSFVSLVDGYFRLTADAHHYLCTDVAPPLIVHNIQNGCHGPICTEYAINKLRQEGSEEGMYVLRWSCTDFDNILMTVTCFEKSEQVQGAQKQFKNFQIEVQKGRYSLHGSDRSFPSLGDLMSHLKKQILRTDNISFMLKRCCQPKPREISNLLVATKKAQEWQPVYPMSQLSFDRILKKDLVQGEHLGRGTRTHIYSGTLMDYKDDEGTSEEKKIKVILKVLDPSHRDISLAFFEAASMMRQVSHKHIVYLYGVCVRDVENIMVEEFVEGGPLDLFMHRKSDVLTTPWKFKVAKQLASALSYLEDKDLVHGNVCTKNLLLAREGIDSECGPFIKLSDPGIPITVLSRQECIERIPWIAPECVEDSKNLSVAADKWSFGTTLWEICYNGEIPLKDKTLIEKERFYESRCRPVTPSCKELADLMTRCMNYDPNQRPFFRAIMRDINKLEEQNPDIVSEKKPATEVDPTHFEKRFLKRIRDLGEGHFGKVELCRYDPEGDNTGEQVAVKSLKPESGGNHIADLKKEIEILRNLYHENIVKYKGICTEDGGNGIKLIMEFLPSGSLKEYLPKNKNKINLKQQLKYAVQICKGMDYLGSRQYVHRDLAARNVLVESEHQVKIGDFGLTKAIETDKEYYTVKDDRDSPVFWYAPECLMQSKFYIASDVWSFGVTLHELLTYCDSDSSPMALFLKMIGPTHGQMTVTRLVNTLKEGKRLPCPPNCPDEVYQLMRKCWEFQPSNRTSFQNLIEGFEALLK
Rho-associated protein kinase 2 (Homo sapiens), sequence (O75116 whole entry, looked up): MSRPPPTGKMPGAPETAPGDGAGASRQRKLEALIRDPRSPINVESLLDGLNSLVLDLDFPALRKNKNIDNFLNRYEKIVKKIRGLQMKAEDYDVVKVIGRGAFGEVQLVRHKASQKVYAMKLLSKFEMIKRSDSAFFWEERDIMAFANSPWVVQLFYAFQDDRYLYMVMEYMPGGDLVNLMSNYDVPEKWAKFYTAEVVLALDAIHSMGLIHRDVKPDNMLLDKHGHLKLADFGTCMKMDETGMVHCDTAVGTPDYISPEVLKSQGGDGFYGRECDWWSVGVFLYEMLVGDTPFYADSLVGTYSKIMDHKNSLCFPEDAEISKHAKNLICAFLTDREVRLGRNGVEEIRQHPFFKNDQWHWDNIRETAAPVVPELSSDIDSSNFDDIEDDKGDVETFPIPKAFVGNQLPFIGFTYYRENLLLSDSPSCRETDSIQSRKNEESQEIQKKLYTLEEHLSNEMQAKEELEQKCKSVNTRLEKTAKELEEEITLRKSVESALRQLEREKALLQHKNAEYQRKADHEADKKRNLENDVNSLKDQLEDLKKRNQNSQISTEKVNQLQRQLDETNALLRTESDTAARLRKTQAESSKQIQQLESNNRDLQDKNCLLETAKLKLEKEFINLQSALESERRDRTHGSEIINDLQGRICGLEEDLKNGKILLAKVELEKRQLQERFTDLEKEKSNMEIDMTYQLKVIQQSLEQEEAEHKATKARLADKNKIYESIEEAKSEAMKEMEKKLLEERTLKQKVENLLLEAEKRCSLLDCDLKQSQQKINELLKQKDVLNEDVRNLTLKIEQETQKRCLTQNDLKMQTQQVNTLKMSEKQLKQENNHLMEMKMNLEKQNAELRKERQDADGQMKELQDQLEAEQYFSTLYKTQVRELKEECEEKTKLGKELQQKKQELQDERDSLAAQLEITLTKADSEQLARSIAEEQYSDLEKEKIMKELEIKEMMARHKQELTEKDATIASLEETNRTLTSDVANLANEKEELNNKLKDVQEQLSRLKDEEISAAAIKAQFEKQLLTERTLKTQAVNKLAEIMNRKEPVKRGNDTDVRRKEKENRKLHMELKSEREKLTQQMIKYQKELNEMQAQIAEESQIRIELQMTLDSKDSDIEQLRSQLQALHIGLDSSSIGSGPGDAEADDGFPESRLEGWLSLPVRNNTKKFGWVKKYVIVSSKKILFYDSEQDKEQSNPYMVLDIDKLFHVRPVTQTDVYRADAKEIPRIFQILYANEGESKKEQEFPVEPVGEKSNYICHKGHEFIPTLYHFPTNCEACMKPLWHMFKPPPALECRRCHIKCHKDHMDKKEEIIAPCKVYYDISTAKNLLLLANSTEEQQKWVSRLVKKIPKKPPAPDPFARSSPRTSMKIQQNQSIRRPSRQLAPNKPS
Serine/threonine-protein kinase PAK 1 (Homo sapiens), sequence (Q13153 whole entry, the tested form may be a part): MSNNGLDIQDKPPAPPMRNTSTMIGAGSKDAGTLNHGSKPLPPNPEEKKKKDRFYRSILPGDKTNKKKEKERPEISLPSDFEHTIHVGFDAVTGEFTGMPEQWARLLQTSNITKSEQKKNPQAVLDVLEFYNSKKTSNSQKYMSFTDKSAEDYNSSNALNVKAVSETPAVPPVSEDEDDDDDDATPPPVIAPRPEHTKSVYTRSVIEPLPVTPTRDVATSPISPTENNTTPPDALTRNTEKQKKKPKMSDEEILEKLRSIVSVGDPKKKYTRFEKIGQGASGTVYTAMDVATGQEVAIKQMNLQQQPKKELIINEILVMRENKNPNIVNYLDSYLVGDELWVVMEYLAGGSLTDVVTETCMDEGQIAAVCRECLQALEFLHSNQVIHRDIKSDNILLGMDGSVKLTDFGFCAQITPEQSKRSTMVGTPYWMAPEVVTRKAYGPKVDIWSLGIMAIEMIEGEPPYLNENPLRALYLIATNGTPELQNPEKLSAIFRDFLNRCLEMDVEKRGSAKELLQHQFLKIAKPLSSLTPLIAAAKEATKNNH
Serine/threonine-protein kinase PAK 4 (Homo sapiens), sequence (O96013 whole entry, looked up): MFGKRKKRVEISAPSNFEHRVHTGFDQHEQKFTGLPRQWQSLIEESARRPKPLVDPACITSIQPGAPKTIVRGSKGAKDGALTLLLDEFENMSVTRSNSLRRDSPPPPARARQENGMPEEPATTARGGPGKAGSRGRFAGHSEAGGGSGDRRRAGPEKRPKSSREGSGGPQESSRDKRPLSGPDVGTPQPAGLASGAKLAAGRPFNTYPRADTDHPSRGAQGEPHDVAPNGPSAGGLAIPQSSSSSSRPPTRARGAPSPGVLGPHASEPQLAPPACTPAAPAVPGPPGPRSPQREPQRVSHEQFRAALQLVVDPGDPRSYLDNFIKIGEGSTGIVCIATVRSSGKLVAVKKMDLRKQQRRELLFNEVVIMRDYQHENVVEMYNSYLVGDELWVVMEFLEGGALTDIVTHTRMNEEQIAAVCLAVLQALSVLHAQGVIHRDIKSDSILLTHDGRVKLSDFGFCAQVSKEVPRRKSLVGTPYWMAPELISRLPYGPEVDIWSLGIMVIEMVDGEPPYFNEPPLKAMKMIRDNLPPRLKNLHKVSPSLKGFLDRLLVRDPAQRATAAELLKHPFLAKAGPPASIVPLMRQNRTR
Tyrosine-protein kinase Lck (Homo sapiens), sequence (P06239 2-509 limits assumed): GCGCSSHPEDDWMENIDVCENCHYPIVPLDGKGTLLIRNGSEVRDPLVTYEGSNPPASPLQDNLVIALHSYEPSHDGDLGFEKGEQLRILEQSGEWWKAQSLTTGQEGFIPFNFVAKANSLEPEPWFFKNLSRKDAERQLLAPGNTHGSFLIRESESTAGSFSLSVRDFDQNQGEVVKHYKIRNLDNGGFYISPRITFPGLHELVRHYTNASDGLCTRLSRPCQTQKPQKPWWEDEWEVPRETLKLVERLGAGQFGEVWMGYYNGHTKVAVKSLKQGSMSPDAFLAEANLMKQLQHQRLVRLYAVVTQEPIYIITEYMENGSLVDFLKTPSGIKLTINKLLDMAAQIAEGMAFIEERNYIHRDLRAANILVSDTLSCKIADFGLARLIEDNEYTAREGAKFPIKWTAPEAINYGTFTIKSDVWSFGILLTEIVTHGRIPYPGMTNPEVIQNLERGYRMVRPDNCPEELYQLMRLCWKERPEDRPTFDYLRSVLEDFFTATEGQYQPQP
Proto-oncogene tyrosine-protein kinase Src (Homo sapiens), sequence (P12931 2-536 limits assumed): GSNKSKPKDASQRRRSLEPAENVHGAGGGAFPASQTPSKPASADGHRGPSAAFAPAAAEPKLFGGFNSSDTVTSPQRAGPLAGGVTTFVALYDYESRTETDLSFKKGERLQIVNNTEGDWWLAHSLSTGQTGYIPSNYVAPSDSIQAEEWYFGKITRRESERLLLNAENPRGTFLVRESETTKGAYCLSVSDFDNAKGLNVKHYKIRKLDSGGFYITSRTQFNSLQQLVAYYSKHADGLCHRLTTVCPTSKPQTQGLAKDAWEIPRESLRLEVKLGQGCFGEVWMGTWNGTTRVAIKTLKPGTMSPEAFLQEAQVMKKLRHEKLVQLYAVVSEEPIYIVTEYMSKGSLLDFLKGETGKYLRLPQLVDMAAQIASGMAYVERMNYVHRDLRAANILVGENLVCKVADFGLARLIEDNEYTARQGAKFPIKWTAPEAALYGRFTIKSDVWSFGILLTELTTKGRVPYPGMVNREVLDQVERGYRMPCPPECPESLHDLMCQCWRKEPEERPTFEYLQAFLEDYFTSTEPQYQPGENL

In series [1], `Nc1ncnc2c1sc1cc(-c3cccc(NC(=O)N4CCCC4)c3)ccc12` returned a pH-dependent lipophilicity (logD) of 2.8. Moreover, the inhibition at 20 µM on CYP1A2 was 28%; in the series on CYP2D6 (Homo sapiens) it was 9%; on CYP3A4, 82%. Moreover, the inhibition in series [2] was found to be 95%; in series [3] it was 10%; in [6], 71%; in series [8] it was 0%; in series [10] it was 7%; in series [12], 56%. In addition, the inhibition is 13% in [14] and 60% in series [15]. In addition, the microsomal CLint at 1 µM in [4] turned out to be 77 µL/min/mg; in series [11] it was 56 µL/min/mg. In addition, the kinetic solubility in series [5] was 3.1 µg/mL (≈ 7.96 µM); in series [13], 50 µg/mL (≈ 128 µM). For the same compound, the IC50 against LIM domain kinase 2 was found to be 103 nM; on LIM domain kinase 1 [7], 95 nM; against LIM domain kinase 1 [9], 2400 nM. This compound also displayed an inhibition at 10 µM on hERG (KCNH2) of 0%.
Regarding `Nc1ncnc2c1sc1cc(-c3cccc(C(=O)NCC(=O)N4CCOCC4)c3)ccc12`, in series [16], the fraction unbound was 0.053. This compound also had a logD in [1] of 2.1. Further, the figures for the inhibition at 20 µM at CYP1A2 and at CYP3A4 were 17% and 70%, respectively. For the same compound, the inhibition in series [2] was found to be 97%; in series [3], 18%; in [6], 97%; in series [8], 23%; in [10] it was 0%; in [12] it was 65%. For the same compound, the inhibition came to 31% in series [14] and 45% in series [15]. Besides, the results for the microsomal CLint at 1 µM in [4] and in [11] were 68 µL/min/mg and below 6 µL/min/mg, respectively. Besides, the results for the kinetic solubility in series [5] and in series [13] were 6.3 µg/mL (≈ 14.1 µM) and 50 µg/mL (≈ 112 µM), respectively. For the same compound, the 50% inhibitory concentration (IC50) at LIM domain kinase 1 [7] is 81 nM; at LIM domain kinase 1 [9] it was 1400 nM. The inhibition at 10 µM on hERG (KCNH2) was 0%.
Take `CN1CCN(C(=O)Nc2cccc(-c3ccc4c(c3)sc3c(N)ncnc34)c2)CC1`: the fraction unbound in series [16] is 0.037. This compound displayed a logD in series [1] of 2.5. Further, the inhibition at 20 µM at CYP1A2 was 11%; in the series with CYP2D6 (Homo sapiens), 12%; at CYP3A4, 82%. Moreover, the inhibition in [2] came out at 88%; in [3] it was 24%; in series [6] it was 75%; in [8] it was 33%; in series [10] it was 0%; in [12], 53%. For the same compound, the figures for the inhibition in [14] and in series [15] were 25% and 71%, respectively. In addition, the microsomal CLint at 1 µM was 165 µL/min/mg in series [4] and 27 µL/min/mg in [11]. The kinetic solubility is 12.5 µg/mL (≈ 29.9 µM) in series [5] and above 100 µg/mL in series [13]. For the same compound, the IC50 against LIM domain kinase 2 was 157 nM; at LIM domain kinase 1 [7], 95 nM; against LIM domain kinase 1 [9], 1600 nM. For the same compound, 10 µM produced 27% inhibition on hERG (KCNH2).
On to `Nc1ncnc2c1sc1cc(-c3cccc(C(=O)NCCc4cccnc4)c3)ccc12`, for which the fraction unbound in [16] is 0.014. This compound came in with a pH-dependent lipophilicity (logD) in [1] of 2.7. Besides, the inhibition at 20 µM at CYP1A2 came out at 13%; in the series with CYP2D6 (Homo sapiens) it was 74%; at CYP3A4, 99%. In addition, the inhibition in [2] came to 98%; in series [3] it was 13%; in series [6], 85%; in series [8] it was 8%; in series [10] it was 13%; in series [12], 60%. Further, the inhibition came out at 31% in series [14] and 23% in [15]. Further, the microsomal CLint at 1 µM came out at 116 µL/min/mg in series [4] and 111 µL/min/mg in series [11]. Also, the solubility (kinetic) in series [5] is below 1.6 µg/mL; in series [13] it was 50 µg/mL (≈ 118 µM). Moreover, the concentration for half-maximal inhibition (IC50) at LIM domain kinase 2 came to 133 nM; at LIM domain kinase 1 [7] it was 97 nM; at LIM domain kinase 1 [9] it was 4100 nM. This compound had an inhibition at 10 µM on hERG (KCNH2) of 11%.

The values are drawn from ChEMBL document CHEMBL3390844, “Development of substituted 7-phenyl-4-aminobenzothieno[3,2-d] pyrimidines as potent LIMK1 inhibitors” (Medchemcomm, 2011).
